Publication PMC6271079, “Amino Acid Derivatives of Ligustrazine-Oleanolic Acid as New Cytotoxic Agents” (Molecules, 2014)

Experiments:
[1] = system: HepG2; assay: MTT cytotoxicity assay, HepG2; format: cell-based; settings: human hepatoma cells
Protocol: (§1) The cytotoxicity of these compounds was tested on five cells lines by the standard MTT assay. The human cancer cells lines (HepG2, HT-29, Hela, BGC-823) and MDCK cells were provided by the Chinese Academy of Medical Sciences Peking Union Medical College. The tumor cells were cultured in RPMI 1640 medium supplemented with 10% (v/v) fetal bovine serum and 1% (v/v) penicillin-streptomycin (Thermo Technologies, New York, NY, USA) at 37 °C in a humidified atmosphere with 5% CO2. The growing tumor cells at a density 3 × 10^3 cells/mL were exposed to various concentrations of the tested drugs and incubated in a 96-well microtiter plate for 72 h (37 °C, 5% CO2). After MTT solution (20 μL, 5 mg/mL) was added to each well, the plate was incubated for a further 4 h. Then the media was removed. Formazan crystals were dissolved with DMSO (150 μL). After mixing well, the absorbance was quantified at 490 nm with a BIORAD 550 spectrophotometer (Bio-rad Life Science Development Ltd., Beijing, China). Wells containing no drugs were used to be blanks. The IC50 values were defined as the concentration of compounds that produced a 50% reduction of surviving cells and calculated using the Logit-method. Tumor cell growth inhibitory rate was calculated in the following Equation (1): % inhibition = (1 − Sample group OD/Control group OD) × 100%(1)

[2] = system: Hela; assay: MTT cytotoxicity assay, Hela; format: cell-based, human; settings: 72 h, cervical cancer cells
Protocol: as §1

[3] = system: MDCK cells; assay: MTT toxicity (nephrotoxicity) evaluation, MDCK; format: cell-based; settings: 72 h, Madin-Darby canine kidney cells
Protocol: as §1

[4] = system: HT-29; assay: MTT cytotoxicity assay, HT-29; format: cell-based; settings: human colorectal cancer cells
Protocol: as §1

[5] = system: HepG2, HT-29, Hela and BGC-823; assay: MTT cytotoxicity, summary statements over the cell lines; format: cell-based, human; settings: Homo sapiens, HepG2, HT-29, Hela and BGC-823, MTT; read-out: IC50, cytotoxicity on all four cancer cell lines
Protocol: as §1

[6] = system: BGC-823; assay: MTT cytotoxicity assay, BGC-823; format: cell-based; settings: human gastric cancer cells
Protocol: as §1

[7] = system: mice; settings: via gavage in mice; earlier studies, no reference given; cited from earlier work
[8] = system: NF-κB/p65 and COX-2; design: method as in PMID 24147349; settings: S180 mice; cited from earlier work
[9] = logP by shake flask-ultraviolet spectrophotometry; format: physicochemical; settings: n-caprylic alcohol-water (octanol/water); pH 6.8, n-caprylic alcohol-water, shake flask-UV; read-out: logP (octanol-water partition coefficient)
Source text: Lipophilicity (ClogP) is used in rational drug design as a key factor related to the cell transmembrane transport or other biological processes. ClogP values can either be calculated experimentally or predicted by means of commercially available programs. In this work, ClogP values of the TOA-amino acid derivatives were predicted using Sybyl-X 2.0 (Tripos, Certara Inc., St. Louis, MO, USA). […] To determine the octanol-water partition coefficient (logP), a shake flask-ultraviolet spectrophotometry method was used to determine the concentration of 6a and TOA in the water phase and organic phase at pH 6.8 with n-caprylic alcohol-water as the simulation system. […] However, the better activity connected with the increases of these amino acid conjugates’ solubility is worthy of further study.

[10] = system: HepG2 cells; assay: DAPI staining, HepG2 nuclear changes; format: cell-based, human; settings: 1, 2 and 4 μM, 72 h, 400×
Protocol: HepG2 cells in logarithmic growth phase were allowed to grow in 6-well plates for 24 h at 37 °C in a humidified atmosphere with 5% CO2. And each group was treated with different concentrations of compound 6a for 72 h. Cell culture medium was discarded and the cells were washed twice with PBS. The cells were fixed with 4% paraformaldehyde (pH 7.4) for 15 min and then washed twice with PBS. With an excitation wavelength of 470 nm, 4',6-diamidino-2-phenylindole (DAPI, 600 nM, Molecular Probes/Invitrogen Life Technologies, Carlsbad, CA, USA) staining was then performed for 2 min and nuclear fragments were observed using inverted phase-contrast microscope at a magnification of 400×.

[11] = system: MDCK cells; assay: Giemsa staining, MDCK morphology; format: cell-based, canine; settings: 2 μM, 72 h, 200×
Protocol: (§2) HepG2 cells in logarithmic growth phase were cultured in 6-well plates for 24 h at 37 °C in a humidified atmosphere with 5% CO2. And then each group was treated with different concentrations of compound 6a for 72 h. The cell culture medium was discarded. And the cells were washed twice with PBS, kept in PBS/ethanol (1:1) for 2 min, fixated in ethanol for 10 min. After removing the ethanol, the cells were stained with Giemsa stain for 2 min and observed under inverted phase-contrast microscope at a magnification of 400×. MDCK cells in logarithmic growth phase were cultured in 6-well plates for 24 h at 37 °C in a humidified atmosphere with 5% CO2. The cells were treated with 2 μM of compound 6a and CDDP for 72 h. The same operation was experimented as described above, and the cells were observed under inverted phase-contrast microscope at a magnification of 200×.

[12] = system: HepG2 cells; assay: Giemsa staining, HepG2 morphology; format: cell-based, human; settings: 1, 2 and 4 μM, 72 h, 400×
Protocol: as §2

[13] = MTT cytotoxicity, summary statements over the cell lines; format: cell-based, human; settings: human (HepG2, HT-29, Hela, BGC-823); dog (MDCK), HepG2, HT-29, Hela, BGC-823 and MDCK cells, four cancer cell lines and MDCK, MTT; read-out: IC50, cytotoxicity on both cancer and MDCK cells
Protocol: as §1

`Cc1nc(C)c(COC(=O)[C@]23CCC(C)(C)CC2C2=CCC4[C@@]5(C)CC[C@H](OC(=O)[C@@H]6CCCN6)C(C)(C)C5CC[C@@]4(C)[C@]2(C)CC3)nc1C` (stereo partly drawn) [Compound 6c, 3β-L-Proline ester olean-12-en-28-oic acid-3,5,6-trimethylpyrazin-2-methyl ester] gave an IC50 ([1]; HepG2, 72 h) of 2.39 µM, an IC50 ([2]; Homo sapiens) of 6.75 µM and an IC50 ([3]; Canis lupus familiaris, MDCK) of 5.03 µM. It also gave a melting point of 89.6 to 91.3 °C, an IC50 ([4]; HT-29, 72 h) of 3.21 µM and an IC50 [5] of under 8 µM. It also gave an IC50 ([6]; BGC-823, 72 h) of 4.98 µM.
In the case of `Cc1nc(C)c(COC(=O)[C@]23CCC(C)(C)CC2C2=CCC4[C@@]5(C)CC[C@H](O)C(C)(C)C5CC[C@@]4(C)[C@]2(C)CC3)nc1C` (stereo partly drawn) [TOA, 3β-Hydroxyolea-12-en-28-oic acid-3,5,6-trimethylpyrazine-2-methyl Ester], the IC50 ([1]; HepG2, 72 h) is listed as 21.4 µM, the LD50 [7] is listed as “exceeded 6.0 g/kg” and the IC50 ([2]; Homo sapiens) is listed as 8.68 µM. For the same compound, the IC50 ([3]; Canis lupus familiaris, MDCK) was over 25 µM, the IC50 ([4]; HT-29, 72 h) was over 25 µM and the IC50 ([6]; BGC-823, 72 h) was over 25 µM. The “Expression of NF-κB/p65 and COX-2” value [8] was “prevented the expression” and the logP [9] was 6.11.
`Cc1nc(C)c(COC(=O)[C@]23CCC(C)(C)CC2C2=CCC4[C@@]5(C)CC[C@H](OC(=O)CN)C(C)(C)C5CC[C@@]4(C)[C@]2(C)CC3)nc1C` (stereo partly drawn) [Compound 6a, 3β-Glycine ester olean-12-en-28-oic acid-3,5,6-trimethylpyrazin-2-methyl ester] gave an IC50 ([1]; HepG2, 72 h) of 2 µM, an IC50 ([2]; Homo sapiens) of 3.26 µM and an IC50 ([3]; Canis lupus familiaris, MDCK) of 4.88 µM. The “Nuclear changes of HepG2 cells (DAPI staining)” value [10] was “condensed chromatin, nuclear fragmentation and weak fluorescence”, the IC50 ([4]; HT-29, 72 h) was 2.5 µM and the “Morphological changes of MDCK cells (Giemsa staining)” value [11] was “no significant morphological changes”. For the same compound, the “Morphological changes of HepG2 cells (Giemsa staining)” value [12] was “loss of intercellular contacts, lysis of nuclei, increased cell debris and membrane damage”, the IC50 ([6]; BGC-823, 72 h) was 3.06 µM and the logP [9] was 4.3.
`Cc1nc(C)c(COC(=O)[C@]23CCC(C)(C)CC2C2=CCC4[C@@]5(C)CC[C@H](OC(=O)[C@@H](N)CCCCN)C(C)(C)C5CC[C@@]4(C)[C@]2(C)CC3)nc1C` (stereo partly drawn) [Compound 6g, 3β-L-Lysine ester olean-12-en-28-oic acid-3,5,6-trimethylpyrazin-2-methyl ester] showed an IC50 ([1]; HepG2, 72 h) of 2.27 µM, an IC50 ([2]; Homo sapiens) of 2.38 µM and an IC50 ([3]; Canis lupus familiaris, MDCK) of 2.31 µM. For the same compound, the melting point was 87.5 to 88.2 °C, the IC50 ([4]; HT-29, 72 h) was 2.35 µM and the IC50 at 72 h [13] was under 2.5 µM. It also gave an IC50 ([6]; BGC-823, 72 h) of 2.48 µM.
`Cc1nc(C)c(COC(=O)[C@]23CCC(C)(C)CC2C2=CCC4[C@@]5(C)CC[C@H](OC(=O)[C@H](C)N)C(C)(C)C5CC[C@@]4(C)[C@]2(C)CC3)nc1C` (stereo partly drawn) [Compound 6b, 3β-L-Alanine ester olean-12-en-28-oic acid-3,5,6-trimethylpyrazin-2-methyl ester] gave an IC50 ([1]; HepG2, 72 h) of 2.32 µM, an IC50 ([2]; Homo sapiens) of 7.69 µM and an IC50 ([3]; Canis lupus familiaris, MDCK) of 5.12 µM. The melting point was 89.7 to 92.1 °C, the IC50 ([4]; HT-29, 72 h) was 4.77 µM and the IC50 [5] was under 8 µM. It also gave an IC50 ([6]; BGC-823, 72 h) of 4.47 µM.
For `[NH2][Pt]([NH2])([Cl])[Cl]` [CDDP, cisplatin, reference compound], the IC50 ([1]; 72 h) was 2.86 µM, the IC50 [2] was 9.84 µM and the IC50 [3] was 3.69 µM. The IC50 ([4]; 72 h) was 6.11 µM, the “Morphological changes of MDCK cells (Giemsa staining)” value [11] was “less density, larger volume, lighter nuclear staining and cellular atypia” and the IC50 ([6]; 72 h) was 6.82 µM.
